According to patent US20090012046A1, “Methods of Treating Mutated Hiv” (priority 2006, published 2009):
Several values for one entry are separate records, joined by “and”; a condition that tells them apart may be missing. Equal entries are not always repeated. Structures can show the parent of a compound that is named as a salt.

Columns and labels:
Format in all cases: cell-based
HIV-1 IIIB = test: In vitro selection of viral strains resistant to RT inhibitors in MT4-LTR-EGFP cells; details: NcRTI-1: prolonged exposure (190 days)
Description: To in vitro select viral strains resistant to RT inhibitors, MT4-LTR-EGFP cells were infected in the presence of the inhibitor (at 2 or 3 times EC50). Cultures were passaged every 3 to 4 days at the same concentration of inhibitor, until full virus breakthrough. At that time, virus was harvested and used for a new round of selection at a higher compound concentration. At each breakthrough, the harvested virus was genotyped to identify acquired mutations. For several RT inhibitors, alone or in combination, the mutations selected when replicating wild type HIV-1 (IIIB) in their presence, were determined (see Table 3).

[1] = tested on: HIV-1 strain with RT mutation K065R; test: Susceptibility of site-directed mutant strain; details: SDM strain K065R
Description: (§1) Site-directed mutant RT coding sequences were generated from a pGEM vector containing the HIV-1 clone HXB2 protease and RT coding sequence by using a QuikChange™ site-directed mutagenesis kit, and HPLC-purified primers. Plasmids were sequenced to confirm that they contained the desired mutations. Mutant viruses were created by recombination of the mutant protease-RT sequence with a protease-RT deleted HIV-1 HXB2 proviral clone^2.

[2] = tested on: HIV-1 strain with RT mutation K103N; test: Susceptibility of site-directed mutant strain; details: SDM strain K103N
Description: as §1

[3] = tested on: HIV-1 strain with RT mutation M184V; test: Susceptibility of site-directed mutant strain; details: SDM strain M184V
Description: as §1

[4] = tested on: HIV-1 strain with RT mutation Y115F; test: Susceptibility of site-directed mutant strain; details: SDM strain Y115F
Description: as §1

[5] = tested on: HIV-1 strain with RT mutation Y181C; test: Susceptibility of site-directed mutant strain; details: SDM strain Y181C
Description: as §1

[6] = tested on: HIV-1 strain with RT mutation Y188L; test: Susceptibility of site-directed mutant strain; details: SDM strain Y188L
Description: as §1

[7] = tested on: HIV-1 strain with RT mutations A62V V75I F77L F116Y Q151M; test: Susceptibility of site-directed mutant strain; details: SDM strain A62V V75I F77L F116Y Q151M
Description: as §1

[8] = tested on: HIV-1 strain with RT mutations F227C L234I; test: Susceptibility of site-directed mutant strain; details: SDM strain F227C L234I
Description: as §1

[9] = tested on: HIV-1 strain with RT mutations K065R M184V; test: Susceptibility of site-directed mutant strain; details: SDM strain K065R M184V
Description: as §1

[10] = tested on: HIV-1 strain with RT mutations K101E K103N; test: Susceptibility of site-directed mutant strain; details: SDM strain K101E K103N
Description: as §1

[11] = tested on: HIV-1 strain with RT mutations K103N Y181C; test: Susceptibility of site-directed mutant strain; details: SDM strain K103N Y181C
Description: as §1

[12] = tested on: HIV-1 strain with RT mutations L100I K103N E138G V179I Y181C; test: Susceptibility of site-directed mutant strain; details: SDM strain L100I K103N E138G V179I Y181C
Description: as §1

[13] = tested on: HIV-1 strain with RT mutations L100I K103N; test: Susceptibility of site-directed mutant strain; details: SDM strain L100I K103N
Description: as §1

[14] = tested on: HIV-1 strain with RT mutations M041L D067N K070R T215Y; test: Susceptibility of site-directed mutant strain; details: SDM strain M041L D067N K070R T215Y
Description: as §1

[15] = tested on: HIV-1 strain with RT mutations T069S ins069-070S-S L210W T215Y; test: Susceptibility of site-directed mutant strain; details: SDM strain T069S ins069-070S-S L210W T215Y
Description: as §1

[16] = tested on: HIV-1 strain with RT mutations Y115F M184V; test: Susceptibility of site-directed mutant strain; details: SDM strain Y115F M184V
Description: as §1

HIV-2 (ROD) = test: Susceptibility of HIV-2 strain
clinical HIV-1 isolates = test: Susceptibility of recombinant clinical HIV-1 isolates to RT inhibitors (fold change in EC50)
Experimental: The susceptibility of over 6000 recent clinical HIV-1 isolates for NcRTI-1 and different N(t)RTIs and NNRTIs was assessed.
Recombinant HIV-1 viruses, derived from clinical samples, were constructed by cotransfection of MT4 cells with sample derived viral protease and RT coding sequences and an HIV-1 HXB2-derived proviral clone deleted in the protease and RT coding region^2.

[17] = over 6000 recent clinical HIV-1 isolates

SMILES	selection of the K65R mutation when combined with TDF (HIV-1 IIIB)	Fold change [1]	Fold change [2]	Fold change [3]	Fold change [4]	Fold change [5]	Fold change [6]	Fold change [7]	Fold change [8]	Fold change [9]	Fold change [10]	Fold change [11]	Fold change [12]	Fold change [13]	Fold change [14]	Fold change [15]	Fold change [16]	Fold change (HIV-2 (ROD))	other results
Nc1nc(=O)n([C@@H]2CS[C@H](CO)O2)cc1F [FTC, emtricitabine]	the K65R mutation was selected																		
CC(C)OC(=O)OCOP(=O)(CO[C@H](C)Cn1cnc2c(N)ncnc21)OCOC(=O)OC(C)C [TDF, tenofovir disoproxil fumarate]		6.0	0.6	0.8	1.0	0.7	0.7	3.7	0.6	2.3	0.5	0.5	0.4	0.3	3.3	2.3	0.9	1.0	
Nc1ccn([C@@H]2CS[C@H](CO)O2)c(=O)n1 [3TC, lamivudine]		>20	1.1	>100	0.7	1.1	1.9		1.1	>100	1.3	0.9	0.7	0.5	8.1	9.5	>100	0.6	
Cc1ccnc2c1NC(=O)c1cccnc1N2C1CC1 [NVP, nevirapine]		3.4	50	2.3	2.9	>100	>100		31	1.2	>100	>100	>100	>100	2.8	1.1	2.3	>100	
Cc1cn([C@H]2C[C@H](N=[N+]=[N-])[C@@H](CO)O2)c(=O)[nH]c1=O [ZDV, zidovudine]																		0.1	
Cn1c2ccccc2c2c1cc(C#N)c(=O)n2-c1ccc([N+](=O)[O-])cc1 [NcRTI-1, 5-Methyl-1-(4-nitro-phenyl)-2-oxo-2,5-dihydro-1H-pyrido[3,2-b]indole-3-carbonitrile]	did not result in selection of the K65R mutation	0.46 and 0.5	1.9	5.0	7.9	2.3	1.7	1.0	2.0	0.89 and 0.9	2.1	2.1	2.5	2.6	3.8	0.9	75	14	effect of NNRTI resistance mutations and N(t)RTI multi-drug resistant patterns (TAMs, T69 insertion complex, Q151M complex) on activity (clinical HIV-1 isolates): not affected; cross-resistance with the NNRTIs EFV or NVP and the N(t)RTIs ZDV, TDF, ABC (clinical HIV-1 isolates; clinical HIV-1 isolates): No cross-resistance was observed; effect of the K65R mutation on susceptibility (clinical HIV-1 isolates; clinical isolates with K65R): hypersusceptibility; FC (fold change in EC50) (clinical HIV-1 isolates; clinical isolates with combination of mutations M184V+Y115F, random set of more than 1700 isolates): 75; profiled clinical isolates showing resistance (FC>10) (clinical HIV-1 isolates; [17]): 2.3%; profiled clinical isolates that remained susceptible (fold change in EC50 (FC)<4) (clinical HIV-1 isolates; [17]): 82%; profiled clinical isolates with reduced susceptibility (FC4-10) (clinical HIV-1 isolates; [17]): 15.7%
